According to patent US20040029777A1, “Pharmaceutical preparation for taste masking” (TAISHO PHARMACEUTICAL CO., LTD., priority 2002, published 2004):

Key:
[1] = Thermographic analysis (TGA), change in weight at set temperature; format: physicochemical
Protocol: Samples weighing approximately 10 mg were placed in a platinum pan and the change in weight at a set temperature (100° C., 150° C.) was measured using Perkin-Elmer Thermal Analysis Equipment.

[2] = In vitro dissolution test, USP apparatus 2 (paddle); format: physicochemical; conditions: distilled water (FIG. 16)
Protocol: Complexes that corresponded to 150 mg of ibuprofen were subjected to dissolution in a USP (United States Pharmacopoeia) dissolution apparatus 2 (Paddle-type) with several kinds of solutions (900 ml). This dissolution test was conducted at 37° C., and a paddle rotation speed of 50 rpm was maintained. A UV detector was used to measure the absorbance of dissolution liquids at regular intervals of up to 120 minutes.
The complexes containing 150 mg of ibuprofen were subjected to dissolution testing using a USP dissolution apparatus 2 (Paddle-type) with several kinds of solutions (900 ml). This dissolution test was conducted at 37° C., at a paddle rotation speed of 50 rpm. A UV detector was used to measure the absorbance of dissolution liquids at regular intervals up to 120 minutes.

## CC(C)Cc1ccc(C(C)C(=O)O)cc1 (stereo not drawn) [ibuprofen, Ibuprofen]
[1]; 100° C.
  TGA change in weight (sublimation): showed sublimation
[1]; 150° C.
  TGA change in weight (sublimation): showed sublimation
[2]
  dissolution profile saturation: ~40%
